From patent US5110976A, “Insecticidal composition comprising more than one active ingredient” (priority 1985, dated 1992)
≈ marks a conversion by molar mass, not a printed value.

Tests used:
tribolium confusum [1] = experiment: Comparative contact test (Table 15); assay type: in vivo, flour-beetle (Tribolium confusum), imago; conditions: 24 h
Description: (§1) The active ingredient is dissolved in a 1:2 mixture of oil and acetone; filter paper discs (Whatman No. 1, diameter 9 cm) are impregnated with the solutions of the corresponding stereoisomers and enantiomer-pairs, respectively. The acetone is allowed to evaporate, whereupon the insects are exposed to filter papers discs placed in Petri-dishes. Three parallels are used on each dose and 15 insects are placed into each Petri-dish. The percental mortality is determined after 24 hours. The corrected percent mortality is calculated by means of the Abbot Formula.
(§2) The comparative test of Ia, Ib and a 40:60 mixture of Ia:Ib is carried out on bean weevil (Acanthoscelides obtectus), flour-beetle, (Tribolium confusum), house fly (Musca domestica) and sheep maggot fly (Lucillia sericata). The test method described is Example 41.

Musca domestica [2] = experiment: Filter paper disc contact test (Table 11); assay type: in vivo, house fly (Musca domestica); conditions: Musca domestica, 24 h
Description: In Table 1 the activity of various stereoisomers of cypermethrin on the house fly (Musca domestica) is shown.
as §1

Acanthoscelides obtectus = experiment: Comparative contact test (Table 15); assay type: in vivo, bean weevil (Acanthoscelides obtectus), imago
Description: as §1, §2

Tribolium confusum [3] = experiment: Contact test, mixtures of Ia and Ib of various ratio (Table 13); assay type: in vivo, flour beetle (Tribolium confusum); conditions: Tribolium confusum, 24 h
Description: as §1
In Table 13 the insecticidal effect of mixtures of enantiomer-pairs Ia and Ib of various ratio is shown on flour beetle (Tribolium confusum). The test method is that disclosed in Example 43.

Tetranychus urticae = experiment: Potter Tower spray on mite-infested leaves (Table 19); assay type: in vivo, mites (Tetranychus urticae); conditions: Tetranychus urticae, 24 h, mortality after 24 hours; read-out: approx. LD50
Description: Leaves already infested with mites (Tetranychus urticae) were sprayed under Potter Tower. Mortality after 24 hours on the treated leaves was compared with the control.

Tribolium confusum [4] = experiment: Contact test on Tribolium confusum (Table 12); assay type: in vivo
Description: as §1
It appears from Table 12 that the increased activity shown in Example 41 is due to the synergistic effect of the trans-isomers to Tribolium confusum.

Lucillia sericata = experiment: Comparative contact test (Table 15); assay type: in vivo, sheep maggot fly (Lucillia sericata), imago; design: key: % mortality after 24 h, Abbott-corrected; conditions: 1440 min
Description: as §1, §2

T. confusum = experiment: Activity as function of time, toxic symptoms (Table 16); assay type: in vivo, flour beetle (T. confusum), imagos
Description: as §1
Activity of cypermethrin stereoisomer-pairs as function of time on flour beetle (T. Confusum).
Flour beetle (T. confusum) imagos are exposed in Petri-dishes according to the method described in Example 43. For each dose 3 parallels are used and 15 animals are applied for each parallel test. In each point of time the insects lying on their backs are counted and the percental results are expressed in Table 16.

Musca domestica [5] = experiment: Comparative contact test (Table 15); assay type: in vivo, house fly (Musca domestica), imago; conditions: 24 h
Description: as §1, §2

Hyphantria cunea = experiment: Topical test on fall webworm (Table 18); assay type: in vivo, fall wetworm (Hyphantria cunea), L7-L8 larvae; conditions: Hyphantria cunea, topical, 24 h
Description: The active ingredients are dissolved in 2-ethoxy-ethanol and the solutions are applied in the form of 0.2 μl droplets onto the back of fall wetworm (Hyphantria cunea) of L7 -L8 larvae stage. The treated worms are placed on strawberry leaves in Petri-dishes. The test is carried out by using […], 2 parallels and 10 insects for each dose. The killed worms are counted after 24 hours and the percental mortality rate is calculated.

Colorado potato beetle = experiment: Topical test on Colorado potato beetle (Table 14); assay type: in vivo, Colorado potato beetle (Leptinotersa decemlineata), imago; conditions: Leptinotarsa decemlineata, topical
Description: In Table 14 the activity on Colorado potato beetle is shown.
The test materials are dissolved in 2-ethoxyethanol (Cellosolve). One 0.3 μl drop of the solution is applied to the abdominal sterna of the imago. The treatment is carried out by using 2 parallels and 10 insects for each dose. […]

**Q.** Which mortality at 20 µg/disc (tribolium confusum [1]; 0.02 mg/disc) does the source give for CC1(C)[C@H](C=C(Cl)Cl)[C@H]1C(=O)O[C@H](C#N)c1cccc(Oc2ccccc2)c1 (relative stereo) [Ib] here?
**A.** 14%

**Q.** What about the mortality at 70 µg/disc (tribolium confusum [1]; 0.07 mg/disc) of the same compound?
**A.** 73%

**Q.** And the mortality at 220 µg/disc (tribolium confusum [1]; 0.22 mg/disc)?
**A.** 100%

**Q.** And the mortality at 670 µg/disc (tribolium confusum [1]; 0.67 mg/disc)?
**A.** 100%

**Q.** What about the mortality at 2000 µg/disc (tribolium confusum [1]; 2.0 mg/disc) of the same compound?
**A.** 100%

**Q.** What about the mortality at 6000 µg/disc (tribolium confusum [1]; 6.0 mg/disc) of the same compound?
**A.** 100%

**Q.** And the mortality at 40 µg/disc (Musca domestica [2]; 0.04 mg/disc)?
**A.** 32%

**Q.** What about the mortality at 110 µg/disc (Musca domestica [2]; 0.11 mg/disc) of the same compound?
**A.** 62%

**Q.** And the mortality at 330 µg/disc (Musca domestica [2]; 0.33 mg/disc)?
**A.** 95%

**Q.** What about the mortality at 1000 µg/disc (Musca domestica [2]; 1.00 mg/disc) of the same compound?
**A.** 100%

**Q.** What about the mortality at 3000 µg/disc (Musca domestica [2]; 3.00 mg/disc) of the same compound?
**A.** 100%

**Q.** What about the mortality at 20 µg/disc (Acanthoscelides obtectus; Acanthoscelides obtectus, 24 h, 0.02 mg/disc) of the same compound?
**A.** 32%

**Q.** What about the mortality at 70 µg/disc (Acanthoscelides obtectus; Acanthoscelides obtectus, 24 h, 0.07 mg/disc) of the same compound?
**A.** 55%

**Q.** What about the mortality at 220 µg/disc (Acanthoscelides obtectus; Acanthoscelides obtectus, 24 h, 0.22 mg/disc) of the same compound?
**A.** 87%

**Q.** And the mortality at 670 µg/disc (Acanthoscelides obtectus; Acanthoscelides obtectus, 24 h, 0.67 mg/disc)?
**A.** 100%

**Q.** And the mortality at 2000 µg/disc (Acanthoscelides obtectus; Acanthoscelides obtectus, 24 h, 2.0 mg/disc)?
**A.** 100%

**Q.** And the mortality at 6000 µg/disc (Acanthoscelides obtectus; Acanthoscelides obtectus, 24 h, 6.0 mg/disc)?
**A.** 100%

**Q.** And the comparative activity (Acanthoscelides obtectus; Example 47, further insect species, Ib versus Ia)?
**A.** more active than Ia

**Q.** What about the mortality at 60 µg/disc (Tribolium confusum [3]; 0.06 mg/disc) of the same compound?
**A.** 46%

**Q.** And the mortality at 250 µg/disc (Tribolium confusum [3]; 0.25 mg/disc)?
**A.** 100%

**Q.** And the mortality at 20 µg/disc (Tribolium confusum [3]; 0.02 mg/disc)?
**A.** 8%

**Q.** What about the mortality at 1000 µg/disc (Tribolium confusum [3]; 1.00 mg/disc) of the same compound?
**A.** 100%

**Q.** What about the LC50 (Tetranychus urticae) of the same compound?
**A.** ~0.34 µg/mL (≈ 0.817 µM)

**Q.** What about the mortality at 110 µg/disc (Tribolium confusum [4]; Tribolium confusum, 24 h, 0.11 mg/disc) of the same compound?
**A.** 64%

**Q.** And the mortality at 330 µg/disc (Tribolium confusum [4]; Tribolium confusum, 24 h, 0.33 mg/disc)?
**A.** 89%

**Q.** And the mortality at 1000 µg/disc (Tribolium confusum [4]; Tribolium confusum, 24 h, 1.00 mg/disc)?
**A.** 100%

**Q.** What about the mortality at 3000 µg/disc (Tribolium confusum [4]; Tribolium confusum, 24 h, 3.00 mg/disc) of the same compound?
**A.** 100%

**Q.** What about the “synergism between the members of the enantiomer-pair” value (Tribolium confusum [4]; in vivo) of the same compound?
**A.** synergism observed

**Q.** And the mortality (Lucillia sericata; 0.02 mg/disc)?
**A.** 22

**Q.** What about the mortality (Lucillia sericata; 0.07 mg/disc) of the same compound?
**A.** 55

**Q.** What about the mortality (Lucillia sericata; 0.22 mg/disc) of the same compound?
**A.** 70

**Q.** What about the mortality (Lucillia sericata; 0.67 mg/disc) of the same compound?
**A.** 75

**Q.** What about the mortality (Lucillia sericata; 2.0 mg/disc) of the same compound?
**A.** 100

**Q.** And the mortality (Lucillia sericata; 6.0 mg/disc)?
**A.** 100

**Q.** What about the “% of insects showing toxic symptoms” value (T. confusum; 30 minutes) of the same compound?
**A.** 0%

**Q.** What about the “% of insects showing toxic symptoms” value (T. confusum; 30 minutes, 0.33 mg/disc) of the same compound?
**A.** 0%

**Q.** And the “% of insects showing toxic symptoms” value (T. confusum; 30 minutes, 1.00 mg/disc)?
**A.** 47%

**Q.** And the “% of insects showing toxic symptoms” value (T. confusum; 30 minutes, 3.00 mg/disc)?
**A.** 61%

**Q.** What about the “% of insects showing toxic symptoms” value (T. confusum; 60 minutes) of the same compound?
**A.** 0%

**Q.** And the “% of insects showing toxic symptoms” value (T. confusum; 60 minutes, 0.33 mg/disc)?
**A.** 21%

**Q.** And the “% of insects showing toxic symptoms” value (T. confusum; 60 minutes, 1.00 mg/disc)?
**A.** 82%

**Q.** And the “% of insects showing toxic symptoms” value (T. confusum; 60 minutes, 3.00 mg/disc)?
**A.** 100%

**Q.** What about the “% of insects showing toxic symptoms” value (T. confusum; 120 minutes) of the same compound?
**A.** 28%

**Q.** What about the “% of insects showing toxic symptoms” value (T. confusum; 120 minutes, 0.33 mg/disc) of the same compound?
**A.** 100%

**Q.** And the “% of insects showing toxic symptoms” value (T. confusum; 120 minutes, 1.00 mg/disc)?
**A.** 100%

**Q.** What about the “% of insects showing toxic symptoms” value (T. confusum; 120 minutes, 3.00 mg/disc) of the same compound?
**A.** 100%

**Q.** What about the “% of insects showing toxic symptoms” value (T. confusum; 180 minutes) of the same compound?
**A.** 56%

**Q.** And the “% of insects showing toxic symptoms” value (T. confusum; 180 minutes, 0.33 mg/disc)?
**A.** 100%

**Q.** And the “% of insects showing toxic symptoms” value (T. confusum; 180 minutes, 1.00 mg/disc)?
**A.** 100%

**Q.** And the “% of insects showing toxic symptoms” value (T. confusum; 180 minutes, 3.00 mg/disc)?
**A.** 100%

**Q.** What about the mortality at 20 µg/disc (Musca domestica [5]; 0.02 mg/disc) of the same compound?
**A.** 0%

**Q.** What about the mortality at 70 µg/disc (Musca domestica [5]; 0.07 mg/disc) of the same compound?
**A.** 18%

**Q.** And the mortality at 220 µg/disc (Musca domestica [5]; 0.22 mg/disc)?
**A.** 67%

**Q.** What about the mortality at 670 µg/disc (Musca domestica [5]; 0.67 mg/disc) of the same compound?
**A.** 100%

**Q.** What about the mortality at 2000 µg/disc (Musca domestica [5]; 2.0 mg/disc) of the same compound?
**A.** 100%

**Q.** What about the mortality at 6000 µg/disc (Musca domestica [5]; 6.0 mg/disc) of the same compound?
**A.** 100%

**Q.** And the mortality at 0.023 µg/disc (Hyphantria cunea; 0.023 (μg/disc))?
**A.** 10%

**Q.** And the mortality at 0.047 µg/disc (Hyphantria cunea; 0.047 (μg/disc))?
**A.** 15%

**Q.** And the mortality at 0.094 µg/disc (Hyphantria cunea; 0.094 (μg/disc))?
**A.** 30%

**Q.** What about the mortality at 0.188 µg/disc (Hyphantria cunea; 0.188 (μg/disc)) of the same compound?
**A.** 70%

**Q.** And the mortality at 0.375 µg/disc (Hyphantria cunea; 0.375 (μg/disc))?
**A.** 80%

**Q.** What about the mortality at 0.05 µg/beetle (Colorado potato beetle; read-out: 24 hours' mortality %, 0.05 μg/beetle) of the same compound?
**A.** 0%

**Q.** And the mortality at 0.1 µg/beetle (Colorado potato beetle; read-out: 24 hours' mortality %, 0.10 μg/beetle)?
**A.** 25%

**Q.** What about the mortality at 0.2 µg/beetle (Colorado potato beetle; read-out: 24 hours' mortality %, 0.20 μg/beetle) of the same compound?
**A.** 75%

**Q.** And the mortality at 0.4 µg/beetle (Colorado potato beetle; read-out: 24 hours' mortality %, 0.40 μg/beetle)?
**A.** 85%
